Source: patent US11390900B2, “Antimicrobial cartridges and processes for multiplexed antimicrobial susceptibility testing” (priority 2018, dated 2022)
Read-outs that look alike come from different tables or passages of the source.

How the values were obtained:
S. aureus 29213 = details: cited from earlier work; for CLSI-Defined QC Range, screen result: S. aureus 29213, no growth @ 0.5/4 (Cli/Ery), @ 4 (cefoxitin), @ 256 (mupirocin)
S. aureus BAA-1708 = details: growth @ 256; cited from earlier work
patient sample microbes [1] = assay: AST MIC results for antimicrobial panel 1 (384-well panel from Master Plate vs 96-well panel); assay type: cell-based; details: for MICs obtained from panel made from Master Plate: antimicrobial panel 1, 384 well patient cartridge; for MICs obtained from 96-well Antibiotic Panel: antimicrobial panel 1, standard 96 well AST assay plate
Source text: (§1) An assay setup comprises preparation of patient (target) cartridge by dispensing antimicrobials were from the master cartridge or intermediate serial dilution cartridges into one or more 384 reservoir patient cartridge, each antimicrobial in about 7 serial dilutions in triplicate, and covering the dynamic range of each antimicrobial that is known to be effective and therefore should be reported. The dilution range included the expected minimum inhibitory concentration (MIC) for each antimicrobial. But most importantly, dilution ranges, that is, antimicrobial concentrations beyond the range known to be effective are included in the patient cartridge as per the present invention.
(§2) The remaining reservoirs of the 384 well patient cartridge are utilized for setting up test controls: a no-antimicrobial control (negative control) was included for each antimicrobial compound; and a positive control was included for each antimicrobial set, where a microorganism that is not susceptible to the antimicrobial was added to the well. Each control set was also dispensed at least in duplicate per 384 well cartridge. Additional test controls may be included as deemed necessary by one of skill in the art. Equal amount of a patient sample was dispensed to each of the wells in the cartridge, except in the wells designated for no-sample control, if included. The patient cartridge was ready for determination of susceptibility of microbes from the patient sample to the twelve antimicrobials at the range of concentrations applied, simultaneously. Multiple such plates can be set up in parallel for testing samples from multiple patients, each patient sample per plate. An AST assay was performed on the prepared patient cartridges.
(§3) First, three master plates are loaded by the user onto chilled plate holders (set to 4° C.). These consist of one Broad Spectrum, one Gram-Positive and one Gram-Negative antibiotic plate. Next the bulk reagents and pipette tips are loaded on tube rack. Master and bulk reagent pipette tips and sample dilution tray are reloaded every 12 samples. For every set of tests, up to four Patient Samples in tubes and up to four 384-well Target Plates (Patient plate) are loaded.
(§4) Antibiotics are transferred from Broad Spectrum Master Plate to Target Plate(s). Antibiotics are “stamped” according to FIG. 10A-B. The inoculator tips should be placed back in the same position of the Broad Spectrum Tip Box for use on subsequent target plates, but should only be used for same antibiotics to avoid cross contamination.
(§5) Antimicrobials are transferred from Gram-Positive OR Gram-Negative Master Plate to Target Plate(s) and the antibiotics are “stamped” according to FIG. 11A-B. The inoculator should place tips back in the same position of the correct tip box for use on subsequent target plates. Good care is taken such that any cross contamination is prevented.
(§6) Using new tips from the Sample Tip Box, 50 μL of diluted patient sample are transferred into Target Plate according to Table Four, this is done with a “jet dispense” to avoid cross contamination. After the Patient Sample has been transferred to each well on the Target Plate, the tips should be disposed of to avoid cross contamination. The above steps are repeated for each additional Patient Sample and Target Plate.
(§7) Shown in Table 6 and Table 7, MIC results for antimicrobial panels 1 and 2 respectively using a master cartridge format and a 384 well patient cartridge (column 3) agrees reliably with that run by standard 96 well AST assay plate (right hand column).

patient sample microbes [2] = assay: AST MIC results for antimicrobial panel 2 (384-well panel from Master Plate vs 96-well panel); assay type: cell-based; details: for MICs obtained from panel made from Master Plate: antimicrobial panel 2, 384 well patient cartridge; for MICs obtained from 96-well Antibiotic Panel: antimicrobial panel 2, standard 96 well AST assay plate
Source text: as §1, §2, §3, §4, §5, §6, §7

K. pneumoniae 700603 = details: MIC range, K. pneumoniae 700603, Gram negative panel; cited from earlier work
patient sample microbes [3] = details: antimicrobial panel 1, MIC range; cited from earlier work
patient sample microbes [4] = details: antimicrobial panel 2, MIC range; cited from earlier work
E. faecalis 29212 = details: cited from earlier work; for CLSI-Defined QC Range, screen result: E. faecalis 29212, no growth @ 100 48 hrs (streptomycin), @ 500 24 hrs (gentamicin); for CLSI-Defined QC Range: MIC range
E. faecalis 51299 = details: growth @ 100 (streptomycin), @ 500 (gentamicin); cited from earlier work
E. coli 25922 = details: MIC range, E. coli 25922, Gram negative panel; cited from earlier work
S. aureus 43300 = details: growth @ 4; cited from earlier work
[5] = E. faecalis 29212, Gram positive panel

Compound | CLSI-Defined QC Range, screen result (S. aureus 29213) | MICs obtained from panel made from Master Plate (patient sample microbes [1]) | MICs obtained from 96-well Antibiotic Panel (patient sample microbes [1]) | MICs obtained from panel made from Master Plate (patient sample microbes [2]) | MICs obtained from 96-well Antibiotic Panel (patient sample microbes [2]) | CLSI-Defined QC Range (K. pneumoniae 700603) | Quality Control Range (patient sample microbes [3]) | Quality Control Range (patient sample microbes [4]) | CLSI-Defined QC Range, screen result (E. faecalis 29212) | CLSI-Defined QC Range, screen result (E. faecalis 51299) | CLSI-Defined QC Range (E. coli 25922) | CLSI-Defined QC Range (E. faecalis 29212; [5]) | further results
C/C(=C\C(=O)OCCCCCCCCC(=O)O)C[C@@H]1OC[C@H](C[C@@H]2O[C@H]2[C@@H](C)[C@H](C)O)[C@@H](O)[C@H]1O [Mupirocin High Level Screen, Mupirocin] | Negative (No growth |  |  |  |  |  |  |  |  |  |  |  | CLSI-Defined QC Range, screen result (S. aureus BAA-1708): Positive (Growth @
CC(C)(O/N=C(\C(=O)N[C@@H]1C(=O)N2C(C(=O)[O-])=C(C[n+]3ccccc3)CS[C@H]12)c1csc(N)n1)C(=O)O [Ceftazidime] |  | ≤ 1 µg/mL | 0.25 µg/mL | 4 µg/mL | 8 µg/mL | 16 to 64 µg/mL | 0.06-0.5 | 4-16 |  |  |  |  | CLSI-Defined QC Range (S. aureus 29213; MIC range, S. aureus 29213, Gram negative panel): 4 to 16 µg/mL
[H]/N=C(/N)N[C@H]1[C@H](O)[C@@H](O)[C@H](O[C@@H]2O[C@@H](C)[C@](O)(C=O)[C@H]2O[C@@H]2O[C@@H](CO)[C@H](O)[C@@H](O)[C@@H]2NC)[C@@H](N/C(N)=N\[H])[C@@H]1O [Streptomycin High Level Screen, Streptomycin] |  |  |  |  |  |  |  |  | Negative (No growth | Positive (Growth @ |  |  | 
CO[C@@]1(NC(=O)Cc2cccs2)C(=O)N2C(C(=O)O)=C(COC(N)=O)CS[C@@H]21 [Cefoxitin] | Negative (No growth |  |  |  |  |  |  |  |  |  | 2 to 8 µg/mL |  | CLSI-Defined QC Range, screen result (S. aureus 43300): Positive (Growth @
Gentamicin |  |  |  |  |  |  |  |  | Negative (No growth | Positive (Growth @ |  | 4 to 16 µg/mL | CLSI-Defined QC Range (E. faecalis 29212; E. faecalis 29212, Gram negative panel): 4 to 16 µg/mL
CC1(C)S[C@@H]2[C@H](NC(=O)[C@H](N)c3ccccc3)C(=O)N2[C@H]1C(=O)O [Ampicillin] |  | 4 µg/mL | 8 µg/mL | 1 µg/mL | 1 µg/mL | >128 µg/mL | 2-8 | 0.5-2 |  |  | 2 to 8 µg/mL | 0.5 to 2 µg/mL | 
